{"source": "paper PMC7611940", "about": "“A Conformation Selective Mode of Inhibiting SRC Improves Drug Efficacy and Tolerability” (Cancer Research, 2021)", "molecular_target": "SRC (Homo sapiens, UniProt P12931)", "sequence (P12931 2-536)": "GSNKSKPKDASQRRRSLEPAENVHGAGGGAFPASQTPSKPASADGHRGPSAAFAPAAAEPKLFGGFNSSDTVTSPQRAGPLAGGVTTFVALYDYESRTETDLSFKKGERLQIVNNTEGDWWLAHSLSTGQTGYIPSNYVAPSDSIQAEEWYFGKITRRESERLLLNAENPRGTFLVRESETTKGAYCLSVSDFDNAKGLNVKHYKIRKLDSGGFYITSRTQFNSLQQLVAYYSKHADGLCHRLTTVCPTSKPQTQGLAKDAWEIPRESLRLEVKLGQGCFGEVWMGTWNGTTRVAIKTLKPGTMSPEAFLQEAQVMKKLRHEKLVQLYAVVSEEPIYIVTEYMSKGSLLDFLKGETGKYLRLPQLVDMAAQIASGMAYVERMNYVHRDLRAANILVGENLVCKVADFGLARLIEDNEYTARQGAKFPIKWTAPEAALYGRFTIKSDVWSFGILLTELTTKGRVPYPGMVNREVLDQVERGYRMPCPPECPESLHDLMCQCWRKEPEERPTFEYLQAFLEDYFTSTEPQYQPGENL", "test": "inhibition of SRC autophosphorylation (pY419) in cells, Western blot", "format": "cell-based"}
{"smiles": "COc1cc(Nc2c(C#N)cnc3cc(OCCCN4CCN(C)CC4)c(OC)cc23)c(Cl)cc1Cl", "note": "[bosutinib]", "values": [{"measurement": "inhibition of SRC autophosphorylation (pY419) in cells, Western blot", "result": "Bosutinib and saracatinib displayed weaker inhibition of SRC autophosphorylation in all the cell lines tested"}]}
